In experiment [1] the target is T1, Hepatocyte nuclear factor 4-alpha (Homo sapiens) (UniProt P41235).
T1 sequence (whole entry): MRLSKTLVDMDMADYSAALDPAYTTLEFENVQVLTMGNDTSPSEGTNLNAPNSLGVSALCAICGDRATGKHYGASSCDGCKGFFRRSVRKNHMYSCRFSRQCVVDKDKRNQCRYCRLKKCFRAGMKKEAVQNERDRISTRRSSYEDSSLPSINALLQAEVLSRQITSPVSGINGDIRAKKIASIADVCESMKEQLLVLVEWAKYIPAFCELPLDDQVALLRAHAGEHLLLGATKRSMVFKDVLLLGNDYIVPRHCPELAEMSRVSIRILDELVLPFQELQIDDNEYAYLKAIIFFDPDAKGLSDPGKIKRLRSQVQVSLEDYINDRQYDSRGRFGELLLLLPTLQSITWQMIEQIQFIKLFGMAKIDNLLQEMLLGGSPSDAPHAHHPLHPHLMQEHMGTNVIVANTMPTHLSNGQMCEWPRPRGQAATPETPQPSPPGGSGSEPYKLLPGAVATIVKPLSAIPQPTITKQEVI
Description: Selectivity interaction (Reporter gene assay) EUB0001483aCl HNF4A. On the set-up: recommended concentration 10 uM.

Experiment [2] concerns the target T2, Nuclear receptor subfamily 2 group C member 1 (Homo sapiens) (UniProt P13056).
T2 sequence (whole entry): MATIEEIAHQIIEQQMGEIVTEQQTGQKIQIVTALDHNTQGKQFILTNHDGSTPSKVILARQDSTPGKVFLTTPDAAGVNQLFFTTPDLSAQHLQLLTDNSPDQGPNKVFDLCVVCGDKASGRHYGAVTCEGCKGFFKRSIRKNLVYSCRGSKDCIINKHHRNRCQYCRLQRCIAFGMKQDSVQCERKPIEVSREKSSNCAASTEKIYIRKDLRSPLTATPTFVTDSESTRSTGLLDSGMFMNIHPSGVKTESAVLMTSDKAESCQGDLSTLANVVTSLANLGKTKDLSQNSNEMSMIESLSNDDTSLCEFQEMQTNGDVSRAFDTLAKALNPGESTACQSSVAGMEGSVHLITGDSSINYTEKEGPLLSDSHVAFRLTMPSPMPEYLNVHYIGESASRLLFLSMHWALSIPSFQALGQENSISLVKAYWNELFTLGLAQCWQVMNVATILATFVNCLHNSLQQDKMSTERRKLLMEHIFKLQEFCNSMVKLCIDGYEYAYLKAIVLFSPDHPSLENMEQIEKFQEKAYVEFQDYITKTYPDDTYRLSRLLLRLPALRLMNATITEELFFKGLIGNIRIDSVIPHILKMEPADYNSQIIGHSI
Description: Selectivity interaction (Reporter gene assay) EUB0001483aCl NR2C1. Also on record: recommended concentration 10 uM.

For experiment [3], the target named is Nuclear receptor subfamily 2 group E member 1 (Homo sapiens) (UniProt Q9Y466). Description: Selectivity interaction (Reporter gene assay) EUB0001483aCl NR2E1. On the set-up: recommended concentration 10 uM.
Chain of Nuclear receptor subfamily 2 group E member 1 (Homo sapiens) (Q9Y466 whole entry): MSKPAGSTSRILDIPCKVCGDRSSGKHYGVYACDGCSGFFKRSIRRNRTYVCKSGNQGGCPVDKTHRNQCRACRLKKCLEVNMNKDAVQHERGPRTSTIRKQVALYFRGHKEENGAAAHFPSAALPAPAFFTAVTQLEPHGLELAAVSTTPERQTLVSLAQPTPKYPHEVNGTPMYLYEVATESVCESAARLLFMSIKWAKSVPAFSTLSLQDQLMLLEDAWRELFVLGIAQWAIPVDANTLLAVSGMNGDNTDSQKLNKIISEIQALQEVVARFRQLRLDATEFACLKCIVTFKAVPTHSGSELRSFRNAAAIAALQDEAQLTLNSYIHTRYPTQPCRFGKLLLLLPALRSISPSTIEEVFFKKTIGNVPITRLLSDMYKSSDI
In experiment [4] the target is Nuclear receptor subfamily 4immunitygroup A member 1 (Homo sapiens) (UniProt P22736). Description: Selectivity interaction (Reporter gene assay) EUB0001483aCl NR4A1. Also on record: recommended concentration 10 uM.
Chain of Nuclear receptor subfamily 4immunitygroup A member 1 (Homo sapiens) (P22736 whole entry): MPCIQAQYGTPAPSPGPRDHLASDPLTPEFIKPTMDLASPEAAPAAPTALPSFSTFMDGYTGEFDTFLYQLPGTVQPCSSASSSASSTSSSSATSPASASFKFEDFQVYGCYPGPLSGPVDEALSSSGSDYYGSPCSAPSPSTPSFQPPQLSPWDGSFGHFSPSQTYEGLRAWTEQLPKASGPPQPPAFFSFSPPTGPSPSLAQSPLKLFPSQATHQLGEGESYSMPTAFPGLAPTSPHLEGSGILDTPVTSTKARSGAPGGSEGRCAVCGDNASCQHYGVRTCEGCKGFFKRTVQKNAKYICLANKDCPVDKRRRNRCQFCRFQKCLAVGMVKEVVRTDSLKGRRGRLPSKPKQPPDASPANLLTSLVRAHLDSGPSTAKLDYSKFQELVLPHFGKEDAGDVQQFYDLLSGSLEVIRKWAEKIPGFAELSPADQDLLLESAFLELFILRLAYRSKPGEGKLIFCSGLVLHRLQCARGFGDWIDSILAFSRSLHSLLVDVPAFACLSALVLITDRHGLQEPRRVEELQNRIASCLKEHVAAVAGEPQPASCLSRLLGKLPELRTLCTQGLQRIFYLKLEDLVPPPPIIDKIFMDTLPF
Experiment [5] has as its target Steroidogenic factor 1 (Homo sapiens) (UniProt Q13285). As to the kind of experiment: Selectivity interaction (Reporter gene assay) EUB0001483aCl NR5A1. Also on record: recommended concentration 10 uM.
Experiment [6] concerns the target T3, Alpha trans-inducing protein (Human alphaherpesvirus 1) (UniProt A0A5J6DW59). Description: Selectivity interaction (Reporter gene assay) EUB0001483aCl UL48. Also on record: recommended concentration 10 uM.
In experiment [7] the target is T4, Retinoic acid receptor RXR-alpha (Homo sapiens) (UniProt P19793).
T4 sequence (whole entry): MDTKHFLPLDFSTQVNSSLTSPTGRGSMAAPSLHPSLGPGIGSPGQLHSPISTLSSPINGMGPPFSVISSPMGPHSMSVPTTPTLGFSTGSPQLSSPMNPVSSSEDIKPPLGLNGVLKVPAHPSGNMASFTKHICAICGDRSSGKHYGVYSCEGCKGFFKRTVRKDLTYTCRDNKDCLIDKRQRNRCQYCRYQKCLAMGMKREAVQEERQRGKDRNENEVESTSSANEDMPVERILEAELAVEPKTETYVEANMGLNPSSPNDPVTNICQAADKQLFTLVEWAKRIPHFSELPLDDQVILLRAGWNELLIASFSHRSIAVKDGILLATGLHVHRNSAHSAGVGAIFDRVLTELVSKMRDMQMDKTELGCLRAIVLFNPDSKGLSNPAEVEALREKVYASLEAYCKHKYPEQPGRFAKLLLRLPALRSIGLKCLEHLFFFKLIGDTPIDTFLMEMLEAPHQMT
Description: Selectivity interaction (Reporter gene assay) EUB0001483aCl RXRA. On the set-up: recommended concentration 10 uM. To be noted: reference bexarotene 1 uM, Selectivity number of off-targets 0.0, Selectivity number of targets 1.0, Source Knowledge inhouse. On the technique in general: In a reporter assay the amount or activity of a reporter protein is the signal.

Experiment [8] deals with T1, Hepatocyte nuclear factor 4-alpha (Homo sapiens). Description: Selectivity interaction (Reporter gene assay) EUB0001478a HNF4A. On the set-up: recommended concentration 1 uM.
Experiment [9] has as its target T2, Nuclear receptor subfamily 2 group C member 1 (Homo sapiens). As to the kind of experiment: Selectivity interaction (Reporter gene assay) EUB0001478a NR2C1. On the set-up: recommended concentration 1 uM.
Experiment [10] has as its target Nuclear receptor subfamily 2 group E member 1 (Homo sapiens) (UniProt Q9Y466). As to the kind of experiment: Selectivity interaction (Reporter gene assay) EUB0001478a NR2E1. On the set-up: recommended concentration 1 uM.
In experiment [11] the target is Nuclear receptor subfamily 4immunitygroup A member 1 (Homo sapiens) (UniProt P22736). As to the kind of experiment: Selectivity interaction (Reporter gene assay) EUB0001478a NR4A1. On the set-up: recommended concentration 1 uM.
Experiment [12] has as its target Steroidogenic factor 1 (Homo sapiens) (UniProt Q13285). Description: Selectivity interaction (Reporter gene assay) EUB0001478a NR5A1. On the set-up: recommended concentration 1 uM.
Experiment [13] addresses T3, Alpha trans-inducing protein (Human alphaherpesvirus 1). Description: Selectivity interaction (Reporter gene assay) EUB0001478a UL48. Also on record: recommended concentration 1 uM.
In experiment [14] the target is T4, Retinoic acid receptor RXR-alpha (Homo sapiens). Description: Selectivity interaction (Reporter gene assay) EUB0001478a RXRA. Also on record: recommended concentration 1 uM.
For experiment [15], the target named is Bromodomain-containing protein 1 (Homo sapiens) (UniProt O95696). To be noted: at 1 µM.
Chain of Bromodomain-containing protein 1 (Homo sapiens) (O95696 whole entry): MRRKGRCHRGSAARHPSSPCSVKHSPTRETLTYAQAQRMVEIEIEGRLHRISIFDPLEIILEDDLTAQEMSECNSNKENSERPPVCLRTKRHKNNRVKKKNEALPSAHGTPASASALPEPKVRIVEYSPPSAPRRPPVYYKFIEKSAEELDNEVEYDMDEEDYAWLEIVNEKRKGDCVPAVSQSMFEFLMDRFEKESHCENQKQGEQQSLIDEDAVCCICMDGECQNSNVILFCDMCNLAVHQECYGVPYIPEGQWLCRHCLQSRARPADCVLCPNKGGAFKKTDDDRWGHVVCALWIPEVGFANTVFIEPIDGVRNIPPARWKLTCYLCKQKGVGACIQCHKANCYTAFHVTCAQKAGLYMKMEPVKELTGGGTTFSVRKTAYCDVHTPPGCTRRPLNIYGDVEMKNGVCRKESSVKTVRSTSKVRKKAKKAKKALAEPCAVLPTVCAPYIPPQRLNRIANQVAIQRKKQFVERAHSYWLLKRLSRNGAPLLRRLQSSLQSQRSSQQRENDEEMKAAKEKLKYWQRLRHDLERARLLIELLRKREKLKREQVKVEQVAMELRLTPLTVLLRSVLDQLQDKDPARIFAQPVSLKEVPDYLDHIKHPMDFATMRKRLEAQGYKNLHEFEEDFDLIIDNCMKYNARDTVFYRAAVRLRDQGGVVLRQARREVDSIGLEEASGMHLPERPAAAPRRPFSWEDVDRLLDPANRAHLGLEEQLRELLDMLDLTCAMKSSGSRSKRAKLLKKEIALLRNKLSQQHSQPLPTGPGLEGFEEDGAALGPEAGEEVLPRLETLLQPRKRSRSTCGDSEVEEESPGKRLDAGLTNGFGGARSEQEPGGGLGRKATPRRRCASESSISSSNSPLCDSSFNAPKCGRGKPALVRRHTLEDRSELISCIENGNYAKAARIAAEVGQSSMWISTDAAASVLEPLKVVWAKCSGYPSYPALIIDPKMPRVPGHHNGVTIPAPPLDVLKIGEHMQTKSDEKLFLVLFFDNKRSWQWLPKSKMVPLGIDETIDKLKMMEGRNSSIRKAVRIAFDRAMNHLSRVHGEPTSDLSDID
The target of experiment [16] is Bromodomain and PHD finger-containing protein 3 (Homo sapiens) (UniProt Q9ULD4). To be noted: at 1 µM.
For experiment [17], the target named is DNA (cytosine-5)-methyltransferase 3B (Homo sapiens) (UniProt Q9UBC3). Description: (§1) Selectivity interaction (Enzymatic assay (human methyltransferases)) EUB0002223a DNMT3B. Particulars: at 50 µM. On the set-up: recommended concentration 1 uM.
The target is the same in experiment [18]. The description is as §1. Particulars: at 50 µM. Also on record: recommended concentration 1 uM. This is another data set of the same source.
Experiment [19] has the same target. Described as §1. To be noted: at 50 µM. Also on record: recommended concentration 1 uM. The source holds these as a separate data set.
For experiment [20] the target is unchanged. The description is as §1. Also on record: recommended concentration 1 uM. Particulars: at 50 µM. The source holds these as a separate data set.
For experiment [21], the target named is DNA (cytosine-5)-methyltransferase 3A (Homo sapiens) (UniProt Q9Y6K1). To be noted: at 50 µM.
Chain of DNA (cytosine-5)-methyltransferase 3A (Homo sapiens) (Q9Y6K1 whole entry, looked up): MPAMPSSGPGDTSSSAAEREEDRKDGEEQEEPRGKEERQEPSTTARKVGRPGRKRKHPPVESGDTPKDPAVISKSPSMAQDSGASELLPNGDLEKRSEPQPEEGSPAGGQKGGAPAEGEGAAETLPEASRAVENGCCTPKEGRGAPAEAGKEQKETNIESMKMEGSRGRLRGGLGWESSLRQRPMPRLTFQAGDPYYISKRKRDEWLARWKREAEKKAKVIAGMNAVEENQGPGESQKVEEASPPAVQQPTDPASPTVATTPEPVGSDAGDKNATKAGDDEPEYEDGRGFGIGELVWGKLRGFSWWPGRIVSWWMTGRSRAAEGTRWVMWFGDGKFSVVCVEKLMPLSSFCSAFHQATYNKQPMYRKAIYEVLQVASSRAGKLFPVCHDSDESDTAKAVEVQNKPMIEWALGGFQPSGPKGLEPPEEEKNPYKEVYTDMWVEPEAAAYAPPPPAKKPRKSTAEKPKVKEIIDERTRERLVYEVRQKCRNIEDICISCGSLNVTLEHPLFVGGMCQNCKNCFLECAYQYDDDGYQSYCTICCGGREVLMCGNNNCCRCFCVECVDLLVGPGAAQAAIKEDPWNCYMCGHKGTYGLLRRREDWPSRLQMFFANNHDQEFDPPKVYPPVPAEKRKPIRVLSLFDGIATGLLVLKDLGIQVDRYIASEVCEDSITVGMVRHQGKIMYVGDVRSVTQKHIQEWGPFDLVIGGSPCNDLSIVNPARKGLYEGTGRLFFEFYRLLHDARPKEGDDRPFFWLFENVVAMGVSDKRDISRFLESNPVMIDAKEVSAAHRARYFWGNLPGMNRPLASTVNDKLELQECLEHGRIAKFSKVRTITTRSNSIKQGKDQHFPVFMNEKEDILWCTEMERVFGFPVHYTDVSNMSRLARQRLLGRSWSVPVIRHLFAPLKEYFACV
Experiment [22] has the same target. Particulars: at 50 µM. This is another data set of the same source.
For experiment [23] the target is unchanged. Particulars: at 50 µM. The source holds these as a separate data set.
The target is the same in experiment [24]. To be noted: at 50 µM. This is another data set of the same source.

Chain of Steroidogenic factor 1 (Homo sapiens) (Q13285 whole entry): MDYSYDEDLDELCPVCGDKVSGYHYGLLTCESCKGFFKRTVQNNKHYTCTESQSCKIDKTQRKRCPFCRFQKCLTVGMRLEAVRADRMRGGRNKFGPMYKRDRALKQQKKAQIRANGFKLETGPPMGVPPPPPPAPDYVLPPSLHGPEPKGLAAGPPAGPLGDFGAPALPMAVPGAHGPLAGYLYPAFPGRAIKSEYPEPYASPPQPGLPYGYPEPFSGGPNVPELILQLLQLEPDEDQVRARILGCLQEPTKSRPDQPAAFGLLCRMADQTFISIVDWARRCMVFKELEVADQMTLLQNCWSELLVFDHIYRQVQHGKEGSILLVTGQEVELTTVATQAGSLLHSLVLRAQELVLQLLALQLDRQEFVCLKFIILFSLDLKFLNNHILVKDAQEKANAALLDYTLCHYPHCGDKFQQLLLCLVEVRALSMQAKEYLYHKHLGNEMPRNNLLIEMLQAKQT
T3 sequence (A0A5J6DW59 as listed by the source): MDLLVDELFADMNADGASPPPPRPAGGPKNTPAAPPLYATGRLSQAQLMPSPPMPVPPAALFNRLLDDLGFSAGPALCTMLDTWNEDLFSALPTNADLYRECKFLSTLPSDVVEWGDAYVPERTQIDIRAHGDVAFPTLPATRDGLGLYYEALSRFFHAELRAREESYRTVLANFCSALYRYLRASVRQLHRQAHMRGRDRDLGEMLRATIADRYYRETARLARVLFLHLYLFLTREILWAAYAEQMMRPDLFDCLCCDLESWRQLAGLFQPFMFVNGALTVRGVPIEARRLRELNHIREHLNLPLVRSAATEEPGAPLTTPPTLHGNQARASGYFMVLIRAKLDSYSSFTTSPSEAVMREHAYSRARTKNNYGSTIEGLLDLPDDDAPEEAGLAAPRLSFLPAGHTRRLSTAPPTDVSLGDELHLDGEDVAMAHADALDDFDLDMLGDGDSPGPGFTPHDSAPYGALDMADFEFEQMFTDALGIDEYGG

With `CN1CCN(c2ccc(/C=C(\C#N)c3ccccc3Br)cc2)CC1`, the Fold activation in [1] turned out to be 1.03; in experiment [2], 1.32; in [3], 1.32; in experiment [4] it was 1.35; in experiment [5], 1.5. Also, the P-value in [6] is 7.2e-05. Also, in experiment [7], the Relative activation amounted to 1.47%.

In the case of `C=C1/C(=C\C=C2/CCC[C@]3(C)[C@@H]([C@H](C)CCCC(C)(C)O)CC[C@@H]23)C[C@@H](O)C[C@@H]1O`, the Remaining activity in experiment [8] turned out to be 0.883; in [12], 0.937. The results for the Fold activation in experiment [9], in [10] and in [11] were 1.06, 1.03 and 1.22, respectively. For the same molecule, the P-value in [13] was found to be 6.76e-09. The same molecule showed a Relative activation in [14] of 0.656%.

As for `CCCOc1cc(OCCCCN(C)C)cc(Oc2cc3c(cc2NS(=O)(=O)c2ccc(OC)c(OC)c2)n(C)c(=O)n3C)c1`, the Control in experiment [15] and in experiment [16] was 0% throughout.

As for `CCNC(=O)NCCSC[C@H]1O[C@@H](n2cnc3c(N)ncnc32)[C@H](O)[C@@H]1O`, the Enzyme activity in [17] worked out at 45%; in experiment [18] it was 45%; in experiment [19] it was 45%; in experiment [20], 45%; in experiment [21], 38%; in experiment [22], 38%. The Enzyme activity in experiment [23] and in [24] was 38% in each case.

(Values after ChEMBL document CHEMBL5715260, “Selectivity Literature for EUbOPEN Chemogenomic Library” (2024).)
